Results taken from US20250041387A1, “POLYPEPTIDE SEQUENCE OF KDM6B AND APPLICATION OF KDM6B IN REGULATING AND CONTROLLING FUNCTION OF MESENCHYMAL STEM CELL” (BEIJING STOMATOLOGICAL HOSPITAL, CAPITAL MEDICAL UNIVERSITY, priority 2021, published 2025).

What was measured:
[1] = system: bone marrow mesenchymal stem cells; test: ALP activity of BMSCs after osteogenic induction; type: cell-based, human; conditions: 3 days of induction in osteogenic culture medium, FIG. 4D
Protocol: (§1) • (1) Osteogenic culture medium was purchased from Invitrogen, USA. • (2) Quantification of alkaline phosphatase (ALP) activity • 1) After 3 days of osteogenic induction, the culture medium was discarded, and the cells were washed with PBS twice. • 2) The cells were added with 500 μL of lysis buffer, and incubated at 37° C. for 15 minutes. • 3) The cells were scraped, transferred into a 1.5 mL EP tube, and centrifuged at 14000 rpm at 4° C. for 10 minutes. The supernatant was transferred into a new EP tube to measure the protein concentration, and the procedure was the same as that in Western blot. • 4) The capsule from the alkaline phosphatase kit (Stock substrate Sol.) was dissolved with 5 mL of distilled water under vigorous shaking, and mixed well. • 5) 50 μL of ALP buffer was added to 50 μL of Stock substrate Sol to obtain a mixture. 100 μL of the mixture was added to each well in a 96-well plate, then added with 10 μL of sample, and mixed well. A blank well without sample added was set for zero adjustment. • 6) The plate was incubated at 37° C. for 15 minutes, and the OD value was measured at 405 nm.
(§2) Result of ALP activity was calculated according to Y/incubation time/protein concentration. • (3) Alizarin red staining • 1) After two weeks of osteogenic induction, the culture medium was discarded. The cells were washed three times with PBS pre-cooled at 4° C., and fixed with 70% ethanol at 4° C. for 1 hour. • 2) The cells were washed 2 times with double distilled water, and stained with 40 mM alizarin red solution (pH 4.2) at room temperature for 10 minutes. The staining was observed by naked eyes. • 3) The cells were washed 3 times with double-distilled water. • (4) Determination of Ca^2+ concentration

[2] = system: senescent bone marrow mesenchymal stem cells; test: β-gal staining in senescent BMSCs of aged mice; type: cell-based, C57BL/6 mice; conditions: FIG. 5A
Protocol: Prior to the start of the experiment, the GENMED staining solution (Reagent E) in the kit was taken out of the refrigerator at −20° C., and thawed in an ice bath. Then 9.5 mL of GENMED dilution (Reagent D) was added into a 15 ml conical centrifuge tube, added with 500 μL of GENMED staining solution (Reagent E), mixed well, and then preheated in a 37° C. thermostatic sink. The obtained mixture was labeled as GENMED staining working solution.

[3] = system: telomerase reverse transcriptase; test: ELISA assay of telomerase reverse transcriptase in SCAPs; type: cell-based, human; conditions: SCAPs treated with polypeptide, FIG. 8B
Protocol: • (1) Pre-detection preparation: A standard curve was calculated and plotted using a standard concentration gradient of 400 ng/mL, 200 ng/ml, 100 ng/ml, 50 ng/mL, 25 ng/ml, 12.5 ng/mL, 6.25 ng/mL, and 0 ng/mL. • (2) 100 μL of the standards and samples were added to each well of a 96-well plate. The plate was covered with a provided sealing film, and incubated at 37° C. for 2 hours. The name of the sample was noted on the surface of the sealing film. • (3) The sample in each well was discarded and spin-dried without washing. • (4) 100 μL of Biotin-antibody (1×) was added to each well. The plate was covered with a sealing film, and incubated at […] for 1 hour. If Biotin-antibody (1×) appeared cloudy, Biotin-antibody was warmed to room temperature and stirred gently until clear. • (5) The sample in each well was discarded. Each well was added with 200 μL of Wash Buffer using a multichannel pipette and left to stand for 2 minutes for washing. This process was repeated twice for a total of three times of washing. Complete removal of liquid at each step was critical for good performance. After the last time of washing, the Wash Buffer was discarded, and the 96-well plate was turned upside down and dried with a clean paper. • (6) 100 μL of HRP-avidin (1×) was added to each well. The 96-well microtiter plate was covered with a new sealing film and incubated at 37° C. for 1 hour. • (7) The process of discarding samples and washing in […] was repeated 5 times. • (8) 90 μL of TMB Substrate was added to each well. The plate was incubated in the dark at 37° C. for 15-30 minutes. 50 μL of Stop Solution was added to each well, and the plate was gently taped to mix solution evenly. • (9) The optical density of each well was detected at 450 nm within 5 min using a microtiter plate reader.

[4] = system: senescent bone marrow mesenchymal stem cells; test: ALP activity of senescent BMSCs of aged mice; type: cell-based, C57BL/6 mice; conditions: 3 days of osteogenic induction, FIG. 5B
Protocol: as §1, §2

[5] = system: bone marrow mesenchymal stem cells; test: Alizarin red staining and calcium quantification in BMSCs; type: cell-based, human; conditions: 2 weeks in osteogenic induction culture medium, FIG. 4E, F
Protocol: as §2
To quantitatively determine the concentration of calcium, the cells were added with 10% cetyl pyridinium chloride for dissolution for 30 minutes at room temperature. The OD value was measured at 562 nm using a spectrophotometer, and the calcium ion concentration of the samples was calculated according to the standard curve of calcium ion concentration, with the total protein concentration as an internal reference.

Substance	ALP activity [1]	ALP activity ([1]; listed as 114-peptide)	number of β-gal positive cells [2]	expression of telomerase reverse transcriptase (ELISA) [3]	expression of telomerase reverse transcriptase (ELISA) ([3]; listed as 114 peptide)	ALP activity [4]	ALP activity ([4]; listed as 114-peptide)	mineralization capacity, quantification of calcium ion [5]	mineralization capacity, quantification of calcium ion ([5]; listed as 114 peptide)	ALP activity ([1]; listed as 102-peptide)	ALP activity ([4]; listed as 102-peptide)	mineralization capacity, quantification of calcium ion ([5]; listed as 102 peptide)
FITC-(Acp)-ADLTISHCAADVVRAYGRKKRRQRRR [peptide 114]	promoted	4.621	significant reduction	promoted the expression	0.05168	promoted	7.612	significantly higher	1.807			
FITC-(Acp)-KEKSRRVLGNLDLQSYGRKKRRQRRR [peptide 102]	promoted		significant reduction	0.03331		promoted		significantly higher		4.218	6.951	1.584
